Laboratory results taken from patent US20250100996A1, “HETEROCYCLOALKYL AND HETEROARYL COMPOUNDS AND PHARMACEUTICAL COMPOSITIONS THAT MODULATE IKZF2” (Plexium, Inc., priority 2021, published 2025).

Tests used:
[1] = target: T1, human E3 ligase component cereblon (CRBN) (Homo sapiens, UniProt Q96SW2); assay: Cereblon (CRBN) target engagement, NanoBRET TE Intracellular E3 Ligase Assay in transfected HEK-293T cells; conditions: read-out: CRBN Binding EC50
T1 construct: host or cells: HEK293T
Procedure, shortened: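 HEK-293T cells transiently co-transfected with NanoLuc-CRBN (N-terminal NanoLuc) and DDB1 were dosed with CRBN tracer and an 11-point compound series (typically 10 μM to 100 pM) for 2 h at 37° C. BRET at 450/610 nm gave IC50 by four-parameter logistic fit.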

IKZF1 (Ikaros) = target: T2, IKZF1 (Ikaros) (Homo sapiens, UniProt Q13422); assay: IKZF1 reporter degradation assay (HEK 293T IKZF1-mNeonGreen reporter cell line); format: cell-based; conditions: HEK 293T IKZF1-mNeonGreen reporter, 24 hours incubation
T2 construct: mScarlet (behind P2A) (C, cleaved yes); expressed in transfected cells
T2 sequence (Q96SW2 whole entry partner): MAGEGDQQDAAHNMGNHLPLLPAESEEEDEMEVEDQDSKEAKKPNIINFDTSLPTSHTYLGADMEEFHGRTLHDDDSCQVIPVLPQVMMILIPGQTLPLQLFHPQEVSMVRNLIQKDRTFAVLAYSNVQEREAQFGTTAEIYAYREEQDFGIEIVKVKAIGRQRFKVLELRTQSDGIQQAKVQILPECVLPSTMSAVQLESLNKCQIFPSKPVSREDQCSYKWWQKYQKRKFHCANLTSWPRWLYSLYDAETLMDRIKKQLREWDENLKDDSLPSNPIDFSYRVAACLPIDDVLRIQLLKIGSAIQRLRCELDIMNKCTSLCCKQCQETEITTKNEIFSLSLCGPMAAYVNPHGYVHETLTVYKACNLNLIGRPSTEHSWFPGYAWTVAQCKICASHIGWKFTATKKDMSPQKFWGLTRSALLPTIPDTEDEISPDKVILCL
T2 sequence (Q16531 whole entry partner): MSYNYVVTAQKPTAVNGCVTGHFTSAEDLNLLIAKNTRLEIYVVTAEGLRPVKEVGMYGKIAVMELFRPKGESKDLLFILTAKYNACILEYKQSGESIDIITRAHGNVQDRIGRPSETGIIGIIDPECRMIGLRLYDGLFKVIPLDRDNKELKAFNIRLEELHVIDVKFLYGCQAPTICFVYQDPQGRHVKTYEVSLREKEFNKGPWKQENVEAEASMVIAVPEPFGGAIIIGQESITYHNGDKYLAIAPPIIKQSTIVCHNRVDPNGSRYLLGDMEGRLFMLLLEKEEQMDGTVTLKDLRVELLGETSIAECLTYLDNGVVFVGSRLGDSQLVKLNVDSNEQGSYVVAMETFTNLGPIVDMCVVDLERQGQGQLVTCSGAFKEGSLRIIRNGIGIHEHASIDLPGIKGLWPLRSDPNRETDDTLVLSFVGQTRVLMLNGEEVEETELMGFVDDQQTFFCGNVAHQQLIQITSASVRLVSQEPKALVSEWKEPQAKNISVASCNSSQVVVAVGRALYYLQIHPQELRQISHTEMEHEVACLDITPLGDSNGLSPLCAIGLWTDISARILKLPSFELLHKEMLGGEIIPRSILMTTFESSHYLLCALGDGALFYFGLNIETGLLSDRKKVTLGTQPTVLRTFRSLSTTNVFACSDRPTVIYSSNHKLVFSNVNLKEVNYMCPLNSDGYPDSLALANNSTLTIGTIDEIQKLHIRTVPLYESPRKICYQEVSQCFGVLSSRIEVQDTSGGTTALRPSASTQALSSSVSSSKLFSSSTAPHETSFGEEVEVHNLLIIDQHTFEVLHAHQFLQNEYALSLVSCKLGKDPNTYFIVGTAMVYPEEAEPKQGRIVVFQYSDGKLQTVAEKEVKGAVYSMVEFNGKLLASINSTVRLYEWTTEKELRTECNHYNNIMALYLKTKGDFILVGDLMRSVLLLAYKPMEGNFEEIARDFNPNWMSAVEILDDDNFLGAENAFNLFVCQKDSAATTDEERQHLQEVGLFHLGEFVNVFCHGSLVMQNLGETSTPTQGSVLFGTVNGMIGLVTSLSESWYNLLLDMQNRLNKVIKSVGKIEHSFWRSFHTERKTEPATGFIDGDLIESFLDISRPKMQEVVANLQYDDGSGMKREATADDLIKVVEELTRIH
T2 sequence (Q13422 whole entry): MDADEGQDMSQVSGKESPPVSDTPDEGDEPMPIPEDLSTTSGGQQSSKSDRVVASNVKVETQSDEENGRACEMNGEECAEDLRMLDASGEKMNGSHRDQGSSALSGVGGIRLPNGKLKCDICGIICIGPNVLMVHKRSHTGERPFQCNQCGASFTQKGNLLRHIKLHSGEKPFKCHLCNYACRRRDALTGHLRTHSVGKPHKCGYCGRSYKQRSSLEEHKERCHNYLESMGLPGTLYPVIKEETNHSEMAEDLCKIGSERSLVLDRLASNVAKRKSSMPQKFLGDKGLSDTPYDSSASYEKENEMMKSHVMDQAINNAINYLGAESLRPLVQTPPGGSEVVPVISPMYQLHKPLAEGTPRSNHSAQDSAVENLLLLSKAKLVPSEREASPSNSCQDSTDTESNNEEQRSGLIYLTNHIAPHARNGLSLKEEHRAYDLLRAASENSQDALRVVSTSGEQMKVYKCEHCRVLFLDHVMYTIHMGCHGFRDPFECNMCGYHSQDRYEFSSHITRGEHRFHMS
Procedure, shortened: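 Clonal HEK 293T lines stably expressing the IKZF-(GGGGS)3-mNeonGreen-P2A-mScarlet reporter were treated with compound for 24 h at 37 °C (≤0.5% DMSO, quadruplicate). Live imaging scored percent mNeonGreen-positive cells, with mScarlet used for segmentation. DC50 came from four-parameter logistic fits.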

T1 sequence (Q96SW2 whole entry): as the sequence (Q96SW2 whole entry partner) above
T1 sequence (Q16531 whole entry partner): as the sequence (Q16531 whole entry partner) above

Row | EC50 [1] [nM] | DC50 (IKZF1 (Ikaros)) [nM] | SMILES
1 | 39 | > 30000 | O=C1CCC(N2Cc3cc(O[C@H]4CCCC[C@@H]4N4CC(C5CCOC5)C4)ccc3C2=O)C(=O)N1 (stereo partly drawn) [Compound 14-A, 3-(1-oxo-5-(((1S,2S)-2-(3-(tetrahydrofuran-3-yl)azetidin-1-yl)cyclohexyl)oxy)isoindolin-2-yl)piperidine-2,6-dione]
2 | 10 | ≥ 30000 | N#CC1(C(=O)N2CCC(C3CN([C@H]4CCCC[C@@H]4Oc4ccc5c(c4)CN(C4CCC(=O)NC4=O)C5=O)C3)CC2)CC1 (stereo partly drawn) [Compound 27-A, 1-(4-(1-((1S,2S)-2-((2-(2,6-dioxopiperidin-3-yl)-1-oxoisoindolin-5-yl)oxy)cyclohexyl)azetidin-3-yl)piperidine-1-carbonyl)cyclopropane-1-carbonitrile]
3 | 3 | > 30000 | CC12CC(C(=O)N3CCC(C4CN([C@H]5CCCC[C@@H]5Oc5ccc6c(c5)CN(C5CCC(=O)NC5=O)C6=O)C4)CC3)(C1)C2 (stereo partly drawn) [Compound 28-A, 3-(5-(((1S,2S)-2-(3-(1-(3-methylbicyclo[1.1.1]pentane-1-carbonyl)piperidin-4-yl)azetidin-1-yl)cyclohexyl)oxy)-1-oxoisoindolin-2-yl)piperidine-2,6-dione]
4 | 67 | > 30000 | CC1(C(=O)N2CCC(C3CN([C@H]4CCCC[C@@H]4Oc4ccc5c(c4)CN(C4CCC(=O)NC4=O)C5=O)C3)CC2)COC1 (stereo partly drawn) [Compound 29-A, 3-(5-(((1S,2S)-2-(3-(1-(3-methyloxetane-3-carbonyl)piperidin-4-yl)azetidin-1-yl)cyclohexyl)oxy)-1-oxoisoindolin-2-yl)piperidine-2,6-dione]
5 | 4 | > 30000 | N#CC1(C(=O)N2CCC(C3CN([C@H]4CCCC[C@@H]4Oc4ccc5c(c4)CN(C4CCC(=O)NC4=O)C5=O)C3)CC2)CCC1 (stereo partly drawn) [Compound 30-A, 1-(4-(1-((1S,2S)-2-((2-(2,6-dioxopiperidin-3-yl)-1-oxoisoindolin-5-yl)oxy)cyclohexyl)azetidin-3-yl)piperidine-1-carbonyl)cyclobutane-1-carbonitrile]
6 | 6 | > 30000 | CC1(C(=O)N2CCC(C3CN([C@H]4CCCC[C@@H]4Oc4ccc5c(c4)CN(C4CCC(=O)NC4=O)C5=O)C3)CC2)CC1 (stereo partly drawn) [Compound 31-A, 3-(5-(((1S,2S)-2-(3-(1-(1-methylcyclopropane-1-carbonyl)piperidin-4-yl)azetidin-1-yl)cyclohexyl)oxy)-1-oxoisoindolin-2-yl)piperidine-2,6-dione]
7 | 5 | > 30000 | O=C1CCC(N2Cc3cc(O[C@H]4CCCC[C@@H]4N4CC(C5CCN(C(=O)C6CC(F)(F)C6)CC5)C4)ccc3C2=O)C(=O)N1 (stereo partly drawn) [Compound 32-A, 3-(5-(((1S,2S)-2-(3-(1-(3,3-difluorocyclobutane-1-carbonyl)piperidin-4-yl)azetidin-1-yl)cyclohexyl)oxy)-1-oxoisoindolin-2-yl)piperidine-2,6-dione]
8 | 7 | > 30000 | CC1(C(=O)N2CCC(C3CN([C@H]4CCCC[C@@H]4Oc4ccc5c(c4)CN(C4CCC(=O)NC4=O)C5=O)C3)CC2)CCCC1 (stereo partly drawn) [Compound 33-A, 3-(5-(((1S,2S)-2-(3-(1-(1-methylcyclopentane-1-carbonyl)piperidin-4-yl)azetidin-1-yl)cyclohexyl)oxy)-1-oxoisoindolin-2-yl)piperidine-2,6-dione]
9 | 10 | > 30000 | O=C1CCC(N2Cc3cc(O[C@H]4CCCC[C@@H]4N4CC(C5CCN(C(=O)CC6CC6)CC5)C4)ccc3C2=O)C(=O)N1 (stereo partly drawn) [Compound 34-A, 3-(5-(((1S,2S)-2-(3-(1-(2-cyclopropylacetyl)piperidin-4-yl)azetidin-1-yl)cyclohexyl)oxy)-1-oxoisoindolin-2-yl)piperidine-2,6-dione]
10 | 8 | > 30000 | CC1CC1C(=O)N1CCC(C2CN([C@H]3CCCC[C@@H]3Oc3ccc4c(c3)CN(C3CCC(=O)NC3=O)C4=O)C2)CC1 (stereo partly drawn) [Compound 35-A, 3-(5-(((1S,2S)-2-(3-(1-(2-methylcyclopropane-1-carbonyl)piperidin-4-yl)azetidin-1-yl)cyclohexyl)oxy)-1-oxoisoindolin-2-yl)piperidine-2,6-dione]
11 | 3 | > 30000 | O=C1CCC(N2Cc3cc(O[C@H]4CCCC[C@@H]4N4CC(C5CCN(C(=O)C6(F)CC6)CC5)C4)ccc3C2=O)C(=O)N1 (stereo partly drawn) [Compound 42-A, 3-(5-(((1S,2S)-2-(3-(1-(1-fluorocyclopropane-1-carbonyl)piperidin-4-yl)azetidin-1-yl)cyclohexyl)oxy)-1-oxoisoindolin-2-yl)piperidine-2,6-dione]
12 | 14 | > 30000 | O=C1CCC(N2Cc3cc(O[C@H]4CCCC[C@@H]4N4CC(C5CCOCC5F)C4)ccc3C2=O)C(=O)N1 (stereo partly drawn) [Compound 55-A, 3-(5-(((1S,2S)-2-(3-(3-fluorotetrahydro-2H-pyran-4-yl)azetidin-1-yl)cyclohexyl)oxy)-1-oxoisoindolin-2-yl)piperidine-2,6-dione]
13 | 3 | > 30000 | O=C1CCC(N2Cc3cc(O[C@H]4CCCC[C@@H]4N4CC(C5CCN(S(=O)(=O)C6CCC6)CC5)C4)ccc3C2=O)C(=O)N1 (stereo partly drawn) [Compound 57-A, 3-(5-(((1S,2S)-2-(3-(1-(cyclobutylsulfonyl)piperidin-4-yl)azetidin-1-yl)cyclohexyl)oxy)-1-oxoisoindolin-2-yl)piperidine-2,6-dione]
14 | 3 | > 30000 | O=C1CCC(N2Cc3cc(O[C@H]4CCCC[C@@H]4N4CC(c5ccc6cccnc6c5)C4)ccc3C2=O)C(=O)N1 (stereo partly drawn) [Compound 87-B, 3-(1-oxo-5-(((1S,2S)-2-(3-(quinolin-7-yl)azetidin-1-yl)cyclohexyl)oxy)isoindolin-2-yl)piperidine-2,6-dione]
